Reference: ChEMBL document CHEMBL1201862, “PubChem BioAssay data set” (2004)
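A five-concentration, 48-hour dose response in 96-well plates underlies each endpoint, interpolated linearly between surrounding concentrations. The concentration for 50% growth inhibition is given as GI50.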 Activity calls are given as the source filed them. Rule as the data show it: active = GI50 up to about 1.1 µM and inactive = higher.

Experiments:
Assay in all cases: NCI tumour cell line growth inhibition, 48 h
[1] = system: OVCAR-8
[2] = system: NCI-H226
[3] = system: NCI-H23
[4] = system: SK-MEL-2
[5] = system: CAKI-1
[6] = system: K562
[7] = system: IGROV-1
[8] = system: CCRF-CEM
[9] = system: UACC-62
[10] = system: UACC-257
[11] = system: LOX IMVI
[12] = system: SF-295
[13] = system: COLO 205
[14] = system: OVCAR-5
[15] = system: HOP-62
[16] = system: U-251
[17] = system: MDA-N
[18] = system: KM12
[19] = system: SR

CSc1nc2c(c(=O)[nH]1)N=C(c1ccc([N+](=O)[O-])cc1)CC(c1ccccc1)N2 (centres undefined)
GI50 [1]: 34.5 µM (inactive) | GI50 [2]: > 100 µM (inactive) | GI50 [3]: 41.3 µM (inactive) | GI50 [4]: 28.3 µM (inactive) | GI50 [5]: 89.1 µM (inactive) | GI50 [6]: 34.4 µM (inactive) | GI50 [7]: 32.7 µM (inactive) | GI50 [8]: 29.2 µM (inactive) | GI50 [9]: 27.4 µM (inactive) | GI50 [10]: 44.9 µM (inactive) | GI50 [11]: 28.1 µM (inactive) | GI50 [12]: 51.1 µM (inactive) | GI50 [13]: 55.1 µM (inactive) | GI50 [14]: > 100 µM (inactive) | GI50 [15]: > 100 µM (inactive) | GI50 [16]: 33.6 µM (inactive) | GI50 [17]: 38.2 µM (inactive) | GI50 [18]: 17.9 µM (inactive) | GI50 [19]: 62.4 µM (inactive)

c1ccc2sc(SSSc3nc4ccccc4s3)nc2c1
GI50 [1]: 55.6 µM (inactive) | GI50 [2]: > 100 µM (inactive) | GI50 [3]: > 100 µM (inactive) | GI50 [4]: > 100 µM (inactive) | GI50 [5]: > 100 µM (inactive) | GI50 [6]: > 100 µM (inactive) | GI50 [7]: > 100 µM (inactive) | GI50 [8]: 28.4 µM (inactive) | GI50 [9]: > 100 µM (inactive) | GI50 [10]: 49.8 µM (inactive) | GI50 [11]: 19.1 µM (inactive) | GI50 [12]: > 100 µM (inactive) | GI50 [13]: > 100 µM (inactive) | GI50 [14]: > 100 µM (inactive) | GI50 [15]: > 100 µM (inactive) | GI50 [16]: > 100 µM (inactive) | GI50 [17]: > 100 µM (inactive) | GI50 [18]: > 100 µM (inactive) | GI50 [19]: 53.8 µM (inactive)

CN(C)CCNC(=O)c1cc([N+](=O)[O-])ccn1
GI50 [1]: 27.2 µM (inactive) | GI50 [2]: > 100 µM (inactive) | GI50 [3]: 20.9 µM (inactive) | GI50 [4]: 24.2 µM (inactive) | GI50 [5]: 34 µM (inactive) | GI50 [6]: 21.5 µM (inactive) | GI50 [7]: 25.9 µM (inactive) | GI50 [8]: 31.6 µM (inactive) | GI50 [9]: 19.2 µM (inactive) | GI50 [10]: 16.3 µM (inactive) | GI50 [11]: 30.1 µM (inactive) | GI50 [12]: 26.8 µM (inactive) | GI50 [13]: 13.4 µM (inactive) | GI50 [14]: 71.4 µM (inactive) | GI50 [15]: 31.4 µM (inactive) | GI50 [16]: 31 µM (inactive) | GI50 [17]: 16.7 µM (inactive) | GI50 [18]: 32.8 µM (inactive) | GI50 [19]: 54.8 µM (inactive)

COc1ccc(N(C(=O)NCCO)c2ccccc2)cc1
GI50 [1]: > 100 µM (inactive) | GI50 [2]: > 100 µM (inactive) | GI50 [3]: > 100 µM (inactive) | GI50 [4]: > 100 µM (inactive) | GI50 [5]: > 100 µM (inactive) | GI50 [6]: > 100 µM (inactive) | GI50 [7]: > 100 µM (inactive) | GI50 [8]: > 100 µM (inactive) | GI50 [9]: > 100 µM (inactive) | GI50 [10]: > 100 µM (inactive) | GI50 [11]: > 100 µM (inactive) | GI50 [12]: > 100 µM (inactive) | GI50 [13]: > 100 µM (inactive) | GI50 [14]: > 100 µM (inactive) | GI50 [15]: > 100 µM (inactive) | GI50 [16]: > 100 µM (inactive) | GI50 [17]: > 100 µM (inactive) | GI50 [18]: > 100 µM (inactive) | GI50 [19]: > 100 µM (inactive)

COc1cc2c(cc1OC)C1c3ccccc3CCN1CC2 (centres undefined)
GI50 [1]: > 100 µM (inactive) | GI50 [2]: 41.2 µM (inactive) | GI50 [3]: 63.5 µM (inactive) | GI50 [4]: > 100 µM (inactive) | GI50 [5]: > 100 µM (inactive) | GI50 [6]: 57.7 µM (inactive) | GI50 [7]: 53.3 µM (inactive) | GI50 [8]: > 100 µM (inactive) | GI50 [9]: 58.1 µM (inactive) | GI50 [10]: > 100 µM (inactive) | GI50 [11]: 48.6 µM (inactive) | GI50 [12]: 82.6 µM (inactive) | GI50 [13]: 58.7 µM (inactive) | GI50 [14]: > 100 µM (inactive) | GI50 [15]: 70.8 µM (inactive) | GI50 [16]: 95.3 µM (inactive) | GI50 [17]: 41.1 µM (inactive) | GI50 [18]: > 100 µM (inactive) | GI50 [19]: > 100 µM (inactive)

CCOc1ccc2c(c1)c(=O)c1c(NCCN(CC)CC)ccc3nnn2c31
GI50 [1]: 7.05 µM (inactive) | GI50 [2]: 11.9 µM (inactive) | GI50 [3]: 14.9 µM (inactive) | GI50 [4]: > 100 µM (inactive) | GI50 [5]: 20.7 µM (inactive) | GI50 [6]: 18.2 µM (inactive) | GI50 [7]: 9.64 µM (inactive) | GI50 [8]: 4.91 µM (inactive) | GI50 [9]: > 100 µM (inactive) | GI50 [10]: > 41.6 µM (inactive) | GI50 [11]: 11.4 µM (inactive) | GI50 [12]: > 35.6 µM (inactive) | GI50 [13]: 33.9 µM (inactive) | GI50 [14]: > 36.1 µM (inactive) | GI50 [15]: > 31.4 µM (inactive) | GI50 [16]: 19.7 µM (inactive) | GI50 [17]: 17.5 µM (inactive) | GI50 [18]: 14 µM (inactive) | GI50 [19]: 10.4 µM (inactive)

COc1ccccc1/N=N/c1c(O)c(S(=O)(=O)O)cc2cc(S(=O)(=O)O)ccc12
GI50 [1]: > 100 µM (inactive) | GI50 [2]: > 100 µM (inactive) | GI50 [3]: > 100 µM (inactive) | GI50 [4]: 53.5 µM (inactive) | GI50 [5]: > 100 µM (inactive) | GI50 [6]: > 100 µM (inactive) | GI50 [7]: > 100 µM (inactive) | GI50 [8]: > 100 µM (inactive) | GI50 [9]: > 100 µM (inactive) | GI50 [10]: > 100 µM (inactive) | GI50 [11]: > 100 µM (inactive) | GI50 [12]: > 100 µM (inactive) | GI50 [13]: > 100 µM (inactive) | GI50 [14]: > 100 µM (inactive) | GI50 [15]: > 100 µM (inactive) | GI50 [16]: > 100 µM (inactive) | GI50 [17]: > 100 µM (inactive) | GI50 [18]: > 100 µM (inactive) | GI50 [19]: > 100 µM (inactive)

Cn1c(=O)c2c(no[n+]2[O-])c2ccccc21
GI50 [1]: 12.7 µM (inactive) | GI50 [2]: 16.9 µM (inactive) | GI50 [3]: 15 µM (inactive) | GI50 [4]: 12.4 µM (inactive) | GI50 [5]: 18.2 µM (inactive) | GI50 [6]: 14.3 µM (inactive) | GI50 [7]: 7.24 µM (inactive) | GI50 [8]: 12.8 µM (inactive) | GI50 [9]: 16.7 µM (inactive) | GI50 [10]: 15.3 µM (inactive) | GI50 [11]: 10.9 µM (inactive) | GI50 [12]: 21.6 µM (inactive) | GI50 [13]: 17.7 µM (inactive) | GI50 [14]: > 10 µM (inactive) | GI50 [15]: 17.3 µM (inactive) | GI50 [16]: 15.8 µM (inactive) | GI50 [17]: 26.4 µM (inactive) | GI50 [18]: 12.4 µM (inactive) | GI50 [19]: 5 µM (inactive)

c1ccc(CC(Nc2cccnc2)c2ccccc2)cc1 (centres undefined)
GI50 [1]: 28.2 µM (inactive) | GI50 [2]: 24.2 µM (inactive) | GI50 [3]: 26.7 µM (inactive) | GI50 [4]: 18.4 µM (inactive) | GI50 [5]: 32.4 µM (inactive) | GI50 [6]: 17.5 µM (inactive) | GI50 [7]: 31 µM (inactive) | GI50 [8]: 16.4 µM (inactive) | GI50 [9]: 16.6 µM (inactive) | GI50 [10]: 22 µM (inactive) | GI50 [11]: 16.2 µM (inactive) | GI50 [12]: 18.5 µM (inactive) | GI50 [13]: 19.8 µM (inactive) | GI50 [14]: 33.3 µM (inactive) | GI50 [15]: 24.5 µM (inactive) | GI50 [16]: 19.5 µM (inactive) | GI50 [17]: 20.1 µM (inactive) | GI50 [18]: 24.2 µM (inactive) | GI50 [19]: 23.9 µM (inactive)

CCCCn1c2c(n(CCCC)c1=S)-c1c(n(CCCC)c(=S)n1CCCC)SSSS2
GI50 [1]: 0.718 µM (active) | GI50 [2]: 16.6 µM (inactive) | GI50 [3]: 3.31 µM (inactive) | GI50 [4]: 2.09 µM (inactive) | GI50 [5]: 0.543 µM (active) | GI50 [6]: 0.371 µM (active) | GI50 [7]: 0.7 µM (active) | GI50 [8]: 0.0957 µM (active) | GI50 [9]: 1.47 µM (inactive) | GI50 [10]: 2.29 µM (inactive) | GI50 [11]: 2.03 µM (inactive) | GI50 [12]: 13.3 µM (inactive) | GI50 [13]: 0.432 µM (active) | GI50 [14]: 0.362 µM (active) | GI50 [15]: 6.28 µM (inactive) | GI50 [16]: 1.99 µM (inactive) | GI50 [17]: 2.84 µM (inactive) | GI50 [18]: 8.93 µM (inactive) | GI50 [19]: 0.397 µM (active)

COc1ccc2c(c1)c(=O)c1c(NCCNCCO)ccc3c(=O)n(CCN(C)C)c(=O)n2c31
GI50 [1]: 0.0604 µM (active) | GI50 [2]: 0.148 µM (active) | GI50 [3]: 0.0637 µM (active) | GI50 [4]: 0.243 µM (active) | GI50 [5]: 0.0537 µM (active) | GI50 [6]: 0.0333 µM (active) | GI50 [7]: 0.0279 µM (active) | GI50 [8]: 0.104 µM (active) | GI50 [9]: 0.0662 µM (active) | GI50 [10]: 0.261 µM (active) | GI50 [11]: 0.0198 µM (active) | GI50 [12]: 0.0861 µM (active) | GI50 [13]: 0.0467 µM (active) | GI50 [14]: 0.227 µM (active) | GI50 [15]: 0.109 µM (active) | GI50 [16]: < 0.0374 µM (active) | GI50 [17]: 0.112 µM (active) | GI50 [18]: 0.142 µM (active) | GI50 [19]: < 0.01 µM (active)
